From US20240408054A1, “COMPOSITIONS AND METHODS FOR […] OF R(-)-MDA” (priority 2023, published 2024)
Read-outs that look alike come from different tables or passages of the source.

Tests used:
[1] = prior studies (Hysek 2012, 2014; Thompson 2007); cited from earlier work
[2] = other studies in healthy human subjects; cited from earlier work
[3] = racemic MDMA at 125 mg (FIG. 9); cited from earlier work
[4] = Neuroendocrine effects (hormone concentrations); assay type: in vivo, human
[5] = 11-Dimensions-Altered States of Consciousness (11D-ASC); assay type: in vivo, human
From the text: The results of the 11D-ASC assessment further confirms the unexpected psychedelic-like response associated with R(−)-MDMA.

[6] = Phase 1 clinical study: safety and tolerability; conditions: healthy volunteers, single oral dose 75-225 mg
[7] = Challenging Experiences Questionnaire (CEQ); assay type: in vivo, human; conditions: 6.5 hours post dosing
From the text: Seven Challenging Experiences Questionnaire (CEQ) factors (grief, fear, death, insanity, isolation, physical distress, and paranoia) provide a phenomenological profile of challenging aspects of experiences with R(−)-MDMA.

[8] = Spoken Intensity Rating Scale (SIRS); assay type: in vivo, human
[9] = Visual Analog Scale (VAS) subjective experience; assay type: in vivo, human
From the text: Visual Analogue Scales (VAS) was used to measure subjective experience, including experiences such as Happy, Open, Loving, Close to Others, Sociable, and Lonely. […] Some signal increases were observable for acute increases in the VAS scores of Happy, Open, and Loving experiences, and an acute decrease associated with Lonely (FIG. 2). However, the degree of those signals was far less than previously reported signals for racemic MDMA. These effects for R(−)-MDMA were observable within the acute treatment phase and were dimished (relative to baseline) after 18 hours post-dosing. […] However, R(−)-MDMA did show a consistent pattern in the 225 mg cohort, with highest changes relative to baseline and with similar directionality as the effects reported for racemic MDMA.

[10] = Multifaceted Empathy Test (MET); assay type: in vivo, human
From the text: The Multifaceted Empathy Test (MET) measures cognitive empathy (CE), explicit emotional empathy (EEE) and implicit emotional empathy (IEE). Hurlemann R, et al., (2010) Oxytocin enhances amygdala-dependent, socially reinforced learning and emotional empathy in humans. J Neurosci 30:4999-5007.

[11] = Depression Anxiety Stress Scale (DASS); assay type: in vivo, human; conditions: for DASS Anxiety Difference with Placebo and 95% CI / DASS Depression Difference with Placebo and 95% CI / DASS Stress Difference with Placebo and 95% CI / DASS Anxiety LSMean and 95% CI / DASS Depression LSMean and 95% CI / DASS Stress LSMean and 95% CI: Day 8; for DASS Anxiety LSMean and 95% CI / DASS Depression LSMean and 95% CI / DASS Stress LSMean and 95% CI: change from baseline
From the text: The Depression Anxiety Stress Scale (DASS) is a 42-item self-report instrument for measuring depression, anxiety and tension/stress.

[12] = 5-Dimensions-Altered States of Consciousness (5D-ASC); assay type: in vivo, human
From the text: This is generally unexpected given the prior results that have been reported for MDMA. One notable finding from the assessment is the ratio of Oceanic Boundlessness (OB) to Dread of Ego Dissolution (DED), which are considered a useful metric. OB is positively correlated with psychedelic-mediated antidepressant efficacy while DED is negatively correlated. […] The OB-DED ratio is consistent with the 11-Dimensional Altered States of Consciousness (11D-ASC, see below).

[13] = set-up: species or system human; conditions: in vivo
[14] = Emotional Breakthrough Inventory (EBI); assay type: in vivo, human; conditions: 75-225 mg
From the text: Self-reported breakthrough responses included: facing emotionally difficult feelings that are usually pushed aside; experiencing resolution of a personal conflict or trauma; ability to explore challenging emotions and memories; having an emotional breakthrough; achieving a sense of closure on an emotional problem; achieving emotional release followed by sense of relief.

[15] = Self-Connectedness Scale / Self-Compassion Scale (SCS); assay type: in vivo, human; conditions: for Self-Connectedness Scale LSMean and 95% CI: change from baseline
From the text: The Self-Compassion Scale (SCS) is a 12-item self-report measure that is used by adults to measure their capacity for self-compassion-the ability to hold one's feelings of suffering with a sense of warmth, connection and concern.

[16] = Phase 1 clinical study: pharmacokinetics (plasma); assay type: in vivo, human
[17] = any cohort compared with the placebo group
[18] = 75-225 mg, statistical significance at higher doses

SMILES: CNC(C)Cc1ccc2c(c1)OCO2 (racemic) [racemic MDMA, 3,4-methylenedioxymethamphetamine]
- oxytocin release [1]: 5-6 x
- VAS Happy, Open, Loving, Close to Others, and Sociable [2]: acute and substantial increases
- 11D-ASC response profile [3]: no visual hallucinations and little to no insightfulness

SMILES: CN[C@H](C)Cc1ccc2c(c1)OCO2 [R(−)-MDMA]
- concentration of mature brain-derived neurotrophic factor [4, 17]: no obvious change from baseline
- concentration of oxytocin [4, 17]: no obvious change from baseline
- concentration of prolactin ([4]; compared with the placebo group): consistent increase
- 11D-ASC response profile ([5]; 175 mg and 225 mg, compared with psilocybin): many similarities to that of psilocybin, with slightly less imagery and slightly more insightfulness
- 11D-ASC subcomponents and total score [5, 18]: dose-dependent increase in all measured subcomponents
- Peak body temperatures [6]: fell within the normal range
- Treatment-related adverse events: headache [6]: 16.7%
- Treatment-related adverse events: nausea [6]: 29.2%
- serious or severe AEs [6]: no serious or severe AEs
- study discontinuations [6]: no study discontinuations
- tolerability [6]: well-tolerated
- blood pressure and heart rate ([6]; limited dose dependency): Non-clinically significant increases
- CEQ changes from baseline [7]: clear dose-dependent response with statistical significance at higher doses
- SIRS dose response ([8]; 75-225 mg oral): very strong dose response
- time of peak SIRS relative to plasma PK Tmax ([8]; each dose): much earlier than the plasma PK Tmax at each dose
- VAS scores for Close to Others and Sociable ([9]; all cohorts): showed no changes from baseline compared to placebo in all cohorts
- VAS scores for Happy, Open, Loving, and Lonely ([9]; compared to placebo control): showed changes from baseline (prior to treatment) in a dose-dependent manner
- MET scores: CE positive, EEE all and EEE negative emotions ([10]; all cohorts): showed no changes from baseline compared to placebo in all cohorts
- MET LSmean scores: CE all, CE negative, EEE positive, IEE all, IEE positive, IEE negative emotions ([10]; near 3.5 hours): showed changes from baseline in a dose-dependent manner
- DASS anxiety ([11]; Day 8, compared to placebo): lowered anxiety at lower doses but increased anxiety at 225 mg compared to placebo
- DASS Anxiety Difference with Placebo and 95% CI ([11]; 75 mg oral): −1.04
- DASS Depression Difference with Placebo and 95% CI ([11]; 75 mg oral): −0.15
- DASS Stress Difference with Placebo and 95% CI ([11]; 75 mg oral): −0.93
- DASS Anxiety Difference with Placebo and 95% CI ([11]; 125 mg oral): −1.07
- DASS Depression Difference with Placebo and 95% CI ([11]; 125 mg oral): −0.26
- DASS Stress Difference with Placebo and 95% CI ([11]; 125 mg oral): −0.91
- DASS Anxiety Difference with Placebo and 95% CI ([11]; 175 mg oral): −1.08
- DASS Depression Difference with Placebo and 95% CI ([11]; 175 mg oral): −0.03
- DASS Stress Difference with Placebo and 95% CI ([11]; 175 mg oral): 1.11
- DASS Anxiety Difference with Placebo and 95% CI ([11]; 225 mg oral): 0.94
- DASS Depression Difference with Placebo and 95% CI ([11]; 225 mg oral): 1.29
- DASS Stress Difference with Placebo and 95% CI ([11]; 225 mg oral): 1.68
- DASS Anxiety LSMean and 95% CI ([11]; 75 mg oral): −1.22
- DASS Depression LSMean and 95% CI ([11]; 75 mg oral): −1.03
- DASS Stress LSMean and 95% CI ([11]; 75 mg oral): −2.57
- DASS Anxiety LSMean and 95% CI ([11]; 125 mg oral): −1.24
- DASS Depression LSMean and 95% CI ([11]; 125 mg oral): −1.14
- DASS Stress LSMean and 95% CI ([11]; 125 mg oral): −2.54
- DASS Anxiety LSMean and 95% CI ([11]; 175 mg oral): −1.26
- DASS Depression LSMean and 95% CI ([11]; 175 mg oral): −0.91
- DASS Stress LSMean and 95% CI ([11]; 175 mg oral): −0.52
- DASS Anxiety LSMean and 95% CI ([11]; 225 mg oral): 0.76
- DASS Depression LSMean and 95% CI ([11]; 225 mg oral): 0.41
- DASS Stress LSMean and 95% CI ([11]; 225 mg oral): 0.05
- ratio of Oceanic Boundlessness (OB) to Dread of Ego Dissolution (DED) ([12]; 175 mg cohort): very favorable ratio
- 5D-ASC subcomponents and total score [12, 18]: dose-dependent increase in all measured subcomponents
- FERT mean happiness reaction time [13]: reduction in the mean happiness reaction time
- FERT median reaction time [13]: greater reduction in the median reaction time
- EBI observations [14]: clear dose-dependent response with statistical significance at higher doses
- Self-Connectedness Scale Difference with Placebo and 95% CI ([15]; Day 2, 75 mg oral): 0.14
- Self-Connectedness Scale Difference with Placebo and 95% CI ([15]; Day 2, 125 mg oral): 0.33
- Self-Connectedness Scale Difference with Placebo and 95% CI ([15]; Day 2, 175 mg oral): 0.42
- Self-Connectedness Scale Difference with Placebo and 95% CI ([15]; Day 2, 225 mg oral): 0.26
- SCS changes from baseline ([15]; Day 2 and Day 8): clear dose-dependent response with statistical significance at Day 8
- Self-Connectedness Scale Difference with Placebo and 95% CI ([15]; Day 8, 75 mg oral): 0.37
- Self-Connectedness Scale Difference with Placebo and 95% CI ([15]; Day 8, 125 mg oral): 0.40
- Self-Connectedness Scale Difference with Placebo and 95% CI ([15]; Day 8, 175 mg oral): 0.41
- Self-Connectedness Scale Difference with Placebo and 95% CI ([15]; Day 8, 225 mg oral): 0.52
- Self-Connectedness Scale LSMean and 95% CI ([15]; Day 2, 75 mg oral): 0.04
- Self-Connectedness Scale LSMean and 95% CI ([15]; Day 2, 125 mg oral): 0.23
- Self-Connectedness Scale LSMean and 95% CI ([15]; Day 2, 175 mg oral): 0.32
- Self-Connectedness Scale LSMean and 95% CI ([15]; Day 2, 225 mg oral): 0.16
- Self-Connectedness Scale LSMean and 95% CI ([15]; Day 8, 75 mg oral): 0.08
- Self-Connectedness Scale LSMean and 95% CI ([15]; Day 8, 125 mg oral): 0.12
- Self-Connectedness Scale LSMean and 95% CI ([15]; Day 8, 175 mg oral): 0.12
- Self-Connectedness Scale LSMean and 95% CI ([15]; Day 8, 225 mg oral): 0.24
- systemic exposure (Cmax/AUC) to the active metabolite R(−)-MDA ([16]; after R(−)-MDMA dosing, at higher doses): increased with doses in a slightly less than dose-dependent manner
- PK food effects ([16]; fasted cohorts versus one fed arm): No patterns in the data suggested any substantial PK food effects
- AUC0-24h compared to prior reports for total MDMA following racemic-MDMA dosing ([16]; plasma): substantially higher
- Systemic exposure (Cmax and AUC) ([16]; plasma, 75-225 mg oral): increase with increasing doses in a generally dose-dependent manner
- pharmacokinetics, dose dependence ([16]; plasma, 75-225 mg oral): dose-dependent pharmacokinetics
